Legend:
[1] = Determination of blood and brain tissue binding (equilibrium dialysis); assay type: in vitro ADME, Sprague Dawley rat; details: Sprague Dawley, 5 h at 37° C.; for fraction unbound at 5 h, 5 micromolar: 1:2 (w/v) in artificial CSF, rat brain homogenate, read-out: % FU Brain; for fraction unbound at 5 h, 0.5 micromolar: whole blood diluted 1:1 (v/v) with isotonic phosphate buffer, rat whole blood, read-out: % FU Blood
Protocol: Sprague Dawley rat whole blood, collected on the week of the experiment using K3-EDTA as an anti-coagulant, is diluted with isotonic phosphate buffer 1:1 (v/v). Sprague Dawley rat whole brain, stored frozen at −20° C., is thawed and homogenised in artificial cerebrospinal fluid (CSF) 1:2 (w/v).
An appropriate amount of test compound is dissolved in DMSO to give a 10 millimolar solution. Further dilutions, to obtain a 166.7 micromolar working solution are then prepared using 50% acetonitrile in MilliQ water. This working solution is used to spike the blood to obtain a final concentration of 0.5 micromolar in whole blood. Similarly, the working solution is used to spike brain samples to obtain a final concentration of 5 micromolar in whole brain. From these spiked blood and brain preparations, control samples (n=3), are immediately extracted and used to calculate the initial recovery of the test items.
150 microL of compound-free buffer (isotonic phosphate buffer for blood or artificial CSF buffer for brain) is dispensed in one half-well and 150 microL of spiked matrix (blood or brain) is loaded in the other half-well, with the two halves separated by a semi-permeable membrane. After an equilibration period of 5 h at 37° C., 50 microL of dialysed matrix (blood or brain) is added to 50 microL of corresponding compound-free buffer, and vice-versa for buffer, such that the volume of buffer to matrix (blood or brain) remains the same. Samples are then extracted by protein precipitation with 300 microL of acetonitrile containing rolipram (control for positive ionization mode) or diclofenac (control for negative ionization mode) as internal standards and centrifuged for 10 min at 3000 rpm. Supernatants are collected (100 microL), diluted with 27% AcN in MilliQ water (200 microL) and then injected into an HPLC-MS/MS or UPLC-MS/MS system to determine the concentration of test compound present.
Blood and brain tissue binding are then determined using the following formulas:
where Afu=apparent fraction unbound; Buffer=analyte/internal standard ratio determined in the buffer compartment; Blood=analyte/internal standard ratio determined in the blood compartment; Brain=analyte/internal standard ratio determined in the brain compartment.
where: fucr=Fraction unbound corrected; D=matrix dilution factor (D=2 for blood and D=3 for brain). then: […]

[2] = Determination of in vivo pharmacokinetic parameters (blood and brain concentrations); details: male, rat
Protocol: Adult male rats (Charles River, Italy) are dosed with test compound orally at 1 mg/kg (5 ml/kg, in 5% v/v DMSO, 0.5% w/v HPMC in water) and intravenously at 0.5 mg/kg (2 ml/kg, in 5% v/v DMSO 40% w/v PEG400 in saline). After oral administration, blood samples are collected under deep Isofluorane anesthesia from the portal vein and heart of each rat (1 rat per time point). After intravenous administration, serial blood samples are collected from the lateral tail vein of each rat. Blood and brain samples are collected at a single timepoint of 0.5 h after dose administration for these animals. In all cases, blood samples are collected into potassium EDTA tubes.
A further group of rats (n=1 per test compound) receive a single intravenous administration of the PgP transport inhibitor, Elacridar (3 mg/kg) shortly before the oral administration of the test compound at 1 mg/kg, as above.
Blood and brain samples can be assayed for test compound concentration using a method based on protein precipitation with acetonitrile followed by HPLC/MS-MS analysis with an optimized analytical method.
The concentrations of test compound in blood (expressed as ng/ml) and brain (expressed as ng/g) at the different time points following either oral or intravenous dosing are analysed using a non-compartmental pharmacokinetic model using WinNonLin Professional version 4.1. The following parameters are derived:
Intravenous dosing: Maximum concentration over time (Cmax), integrated concentration over time (AUC), clearance (Clb), volume of distribution (Vss), half-life (t1/2) and Brain/Heart Blood conc @0.5 hr.
Oral dosing: Cmax, time of maximum concentration (Tmax), AUC, bioavailability (F %), fraction absorbed (Fa %), blood to brain ratio (AUC B/B), and Fold-change in AUC B/B in the presence of Elacridar.

**Q.** Which fraction unbound at 5 h, 5 micromolar [1] does the source give for `Cc1ccc(Oc2ccc(-n3c(=O)[nH]c4cccnc43)cn2)cc1OC(F)(F)F` [Example 4, 3-[6-[4-methyl-3-(trifluoromethoxy)phenoxy]-3-pyridyl]-1H-imidazo[4,5-b]pyridin-2-one] here?
**A.** 0.003

**Q.** What about the fraction unbound at 5 h, 0.5 micromolar [1] of the same molecule?
**A.** 0.002

**Q.** Which results are given for `Cc1ccc(Oc2ncc(-n3c(=O)[nH]c4cccnc43)cn2)cc1OC(F)(F)F` [Example 32, 3-[2-[4-methyl-3-(trifluoromethoxy)phenoxy]pyrimidin-5-yl]-1H-imidazo[4,5-b]pyridin-2-one]?
**A.** fraction unbound at 5 h, 5 micromolar [1]: 0.006; fraction unbound at 5 h, 0.5 micromolar [1]: 0.01

**Q.** With `O=c1[nH]c2cccnc2n1-c1cnc(Oc2cccc(OC(F)(F)F)c2)nc1` [Example 17, 3-[2-[3-(trifluoromethoxy)phenoxy]pyrimidin-5-yl]-1H-imidazo[4,5-b]pyridin-2-one] as the molecule, how does the Kp ([2]; brain and blood, oral dosing 1 mg/kg, read-out: AUC B/B (brain/blood) ratio) read?
**A.** 0.45

**Q.** What about the Kp at 0.5 h ([2]; brain and heart blood, intravenous, 0.5 mg/kg, 0.5 h after dose administration, read-out: Brain/Heart Blood conc @0.5 hr) of the same molecule?
**A.** 0.76

**Q.** What about the fraction unbound at 5 h, 5 micromolar [1] of the same molecule?
**A.** 0.016

**Q.** And the fraction unbound at 5 h, 0.5 micromolar [1]?
**A.** 0.016

— US20240327406A1, “POTASSIUM CHANNEL MODULATORS” (Autifony Therapeutics Limited, priority 2021, published 2024)
